Non-standard residues stand in square brackets, D forms with d. Residues, ends and D or L forms follow the SMILES beside them. No end group written: not given here. ξ: configuration not given here. ξGly(decyl) = CCCCCCCCCCC(N)C(=O)O; 2Adod = 2-aminododecanoic acid

Series [1] in a line: PET-CT uptake of Cu64-labelled NOTA-peptide in lung and blood after SC, IP, oral gavage. The class given is in vivo. Conditions: 200 ug SC/IP and 1 mg OG, mice. The protocol: For FIG. 1d, 1,4,7-Triazacyclononane-1,4,7-triacetic acid (NOTA) conjugated peptides were acquired from Auspep, reconstituted in deionised water at 10 mg/mL and used without further purification. Peptides were incubated with ^64Cu at 1000-fold excess of peptide in 0.1 M pH 5.5 ammonium acetate buffer for 45 minutes at 37° C. 1 μL Samples of each solution were taken and mixed 1:1 with 50 mM EDTA. EDTA incubated sample or neat solution was spotted on TLC paper (Agilent iTLC-SG Glass microfiber chromatography paper impregnated with silica gel) and run with 50:50 H2O:ethanol. Detection of radiolabelled species migration was then achieved by imaging on a Bruker In Vivo MS FX Pro imaging system using a radioisotopic phosphor screen. Control experiments were conducted to monitor the elution profile of free ^64Cu and ^64Cu bound to EDTA for quality control. […]
The PET Images were reconstructed using an ordered-subset expectation maximization (OSEM2D) algorithm and analysed using the Inveon Research Workplace software (IRW 4.1) (Siemens) which allows fusion of CT and PET images and definition of regions of interest (ROIs). […] Activity concentrations were then expressed as percent of the decay-corrected injected activity per cm^3 of tissue that can be approximate as percentage injected dose/g (% ID/g). […]

A further series concerns B16-F10 melanoma cells. Put plainly: SRB proliferation assay, B16-F10 melanoma cells. In kind it is cell-based. Conditions: 2.5 μM, 72 h. As to the method: (§1) In addition, doxorubicin at 2.5 μM was tested in 5 replicate wells as a positive control. Cells were cultured for a further 72 h in the presence of drug or control before the cell culture medium was removed and the attached cells fixed in ice-cold trichloroacetic acid. […] Each experiment was performed on two independent occasions (biological replicates) and data were analysed in GraphPad Prism 9 using non-linear fit of log (inhibitor) versus response.
(In SRB staining, fixed cells bind dye roughly in proportion to their protein.)

The subject of the next series is Lewis Lung Cancer cells. The series can be described thus: SRB proliferation assay, Lewis Lung Cancer cells. In kind it is cell-based. Conditions: 2.5 μM, 72 h. The protocol:
as §1

The next series concerns IL-2. Put plainly: IL-2 ELISA, anti-CD3/anti-CD28 stimulated isolated CD3+ T cells. The class given is cell-based, human. Conditions: 72 hrs. For orientation: In an ELISA, binding on a coated surface is turned into a signal by an enzyme label.
The target in the next series is c-Src (Homo sapiens, UniProt P12931). Put plainly: c-Src kinase activity assay ([γ33P-ATP], filtermat). The class given is biochemical. The protocol: c-Src, Fyn, Hck is incubated with 8 mM MOPS pH 7.0, 0.2 mM EDTA, 250 μM KVEKIGEGTYGVVYK (Cdc2 peptide), 10 mM MgAcetate and [γ33P-ATP] (specific activity approx. 500 cpm/pmol, concentration as required). The reaction is initiated by the addition of the MgATP mix. After incubation for 40 minutes at room temperature, the reaction is stopped by the addition of 3% phosphoric acid solution. 10 μL of the reaction is then spotted onto a P30 filtermat and washed three times for 5 minutes in 75 mM phosphoric acid and once in methanol prior to drying and scintillation counting.

The target of a further series is Lck (Homo sapiens, UniProt P06239). The series can be described thus: Lck kinase activity assay ([γ33P-ATP], filtermat). The class given is biochemical. As to the method:
Lck is incubated with 50 mM Tris pH 7.5, 0.1 mM EGTA, 0.1 mM Na3VO4, 250 μM KVEKIGEGTYGWYK (Cdc2 peptide), 10 mM Magnesium acetate and [γ33P-ATP] (specific activity approx. 500 cpm/pmol, concentration as required). The reaction is initiated by the addition of the Mg/ATP mix. After incubation for 40 minutes at room temperature, the reaction is stopped by the addition of phosphoric acid to a concentration of 0.5%. 10 μL of the reaction is then spotted onto a P30 filtermat and washed four times for 4 minutes in 0.425% phosphoric acid and once in methanol prior to drying and scintillation counting.”

The target in the next series is MAP4K1 (HPK1) (Homo sapiens, UniProt Q92918). Put plainly: MAP4K1 (HPK1) kinase activity. The class given is biochemical.
The test system of the next series is CD28. Put plainly: CD28 expression on CD4+ T cells of stimulated PBMCs. The class given is cell-based, human. Conditions: PBMCs + anti-CD3, 72 hrs. As to the method: FIG. 7: RSKAKNPLYR-(2Adod)4-NH2 increases CD28 levels on T cells. […] Data presented indicates the mean respective expression in CD4+ T cell populations in response to peptide treatment, +/−SEM, n=4. Data was analysed by two-way ANOVA with Dunnett's post test, *P<0.05, **P<0.01, ***P<0.001, ****P<0.0001. *** indicates all bars under the line are significant compared to vehicle. Red dotted line indicates unstimulated PBMC expression.
Because full activation of MAP kinases requires the presence of the TCR co-receptor, the present inventors sought to examine the expression of CD28 on T cells.

A further series deals with exhausted CD4+ cells. Put plainly: IL-2 from exhausted CD4+ cells upon restimulation (MBP-Tracker mouse splenocytes). The class given is cell-based, mice. Conditions: 72 hrs, multiplex immunoassay. As to the method:
Supernatants were collected after 72 hrs in culture to assess IL-2 cytokine production measured by multiplex immunoassay. Data are presented as mean+/−SEM from 4 biological replicates normalised to vehicle control (0). **P<0.01, Non-parametric one way ANOVA (Freidman) with Dunns post-test was used to compare groups at each dose level to lowest level (0.08 μM).
T examine the ability of peptides comprising D-amino acids induce low levels of IL-2, IL-2 expression on exhausted CD4+ cells upon restimulation was examined. In brief, a single spleen per experiment was removed from MBP-Tracker mice and processed to generate a single cell suspension of splenocytes. Cells were resuspended at 3×10^6/mL and stimulated with WT-MBP (control, non-exhausted cells) or APL-MBP (to generate exhausted cells). Cells were stimulated for 72 hr. Following stimulation, T cells were purified by ficoll density gradient and subsequently re-plated at 2×10^6/mL in 20U/mL IL-2 for four days. After 4 days, cells were collected, resuspended (4×10^5/mL, final 2×10^4 per well) and restimulated using irradiated APC (from B10PL×C57BL/6 mice, 4×10^6/mL, final 2×10^5 per well) a single dose of APL-MBP peptide, together with test or reference substance or appropriate controls for 72 hrs. […]

Chain of MAP4K1 (HPK1) (Q92918 whole entry): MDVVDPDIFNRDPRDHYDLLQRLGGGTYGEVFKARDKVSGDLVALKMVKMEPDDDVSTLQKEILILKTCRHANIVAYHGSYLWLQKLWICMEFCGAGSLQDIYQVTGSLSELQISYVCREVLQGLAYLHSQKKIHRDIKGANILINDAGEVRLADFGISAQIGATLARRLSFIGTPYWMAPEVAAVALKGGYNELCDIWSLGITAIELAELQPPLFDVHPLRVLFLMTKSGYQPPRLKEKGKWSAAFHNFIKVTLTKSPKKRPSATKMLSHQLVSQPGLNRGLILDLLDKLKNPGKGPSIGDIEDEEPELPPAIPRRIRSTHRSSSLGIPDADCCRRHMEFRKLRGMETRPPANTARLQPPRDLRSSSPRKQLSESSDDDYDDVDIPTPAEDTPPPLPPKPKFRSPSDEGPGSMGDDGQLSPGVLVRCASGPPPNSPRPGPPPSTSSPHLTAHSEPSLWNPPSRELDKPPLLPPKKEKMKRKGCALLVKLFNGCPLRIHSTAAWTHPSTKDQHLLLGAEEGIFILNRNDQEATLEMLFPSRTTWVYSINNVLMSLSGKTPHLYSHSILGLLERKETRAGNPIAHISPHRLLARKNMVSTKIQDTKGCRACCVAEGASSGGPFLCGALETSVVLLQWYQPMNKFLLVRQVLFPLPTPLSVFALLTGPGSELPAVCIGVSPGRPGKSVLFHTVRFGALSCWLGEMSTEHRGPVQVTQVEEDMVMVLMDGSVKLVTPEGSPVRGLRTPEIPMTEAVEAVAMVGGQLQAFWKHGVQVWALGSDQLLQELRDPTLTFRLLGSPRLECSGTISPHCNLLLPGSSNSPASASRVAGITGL
Chain of Lck (P06239 whole entry): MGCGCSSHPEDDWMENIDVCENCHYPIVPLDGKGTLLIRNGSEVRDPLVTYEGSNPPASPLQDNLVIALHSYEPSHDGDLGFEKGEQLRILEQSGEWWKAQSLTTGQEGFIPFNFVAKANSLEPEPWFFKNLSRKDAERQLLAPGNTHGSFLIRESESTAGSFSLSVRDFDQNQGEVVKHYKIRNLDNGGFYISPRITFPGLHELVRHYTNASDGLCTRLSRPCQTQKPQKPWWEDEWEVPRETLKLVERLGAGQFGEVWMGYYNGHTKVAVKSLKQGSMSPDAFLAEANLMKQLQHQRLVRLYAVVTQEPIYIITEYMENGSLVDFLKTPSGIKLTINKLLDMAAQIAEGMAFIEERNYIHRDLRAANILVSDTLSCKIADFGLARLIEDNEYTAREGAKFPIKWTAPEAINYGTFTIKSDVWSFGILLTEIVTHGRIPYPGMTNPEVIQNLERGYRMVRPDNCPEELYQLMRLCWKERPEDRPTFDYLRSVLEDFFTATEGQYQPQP

In the case of `CCCCCCCCCCC(NC(=O)C(CCCCCCCCCC)NC(=O)C(CCCCCCCCCC)NC(=O)C(CCCCCCCCCC)NC(=O)[C@H](CCCNC(=N)N)NC(=O)[C@H](Cc1ccc(O)cc1)NC(=O)[C@H](CC(C)C)NC(=O)[C@@H]1CCCN1C(=O)[C@H](CC(N)=O)NC(=O)[C@H](CCCCN)NC(=O)[C@H](C)NC(=O)[C@H](CCCCN)NC(=O)[C@H](CO)NC(=O)[C@@H](N)CCCNC(=N)N)C(N)=O` (some centres unmarked) [IK14004, RSKAKNPLYR-(2Adod)4-NH2] (H-RSKAKNPLYR[ξGly(decyl)][ξGly(decyl)][ξGly(decyl)][ξGly(decyl)]-NH2; N-terminus assumed), in [1], the tolerability of doses entry was “Well tolerated”.

As for `COc1cccc2c1C(=O)c1c(O)c3c(c(O)c1C2=O)C[C@@](O)(C(=O)CO)C[C@@H]3O[C@H]1C[C@H](N)[C@H](O)[C@H](C)O1` [doxorubicin], in the series with B16-F10 melanoma cells, the “kill in vitro, B16-F10 melanoma cells” value was found to be 100%. Besides, in the series with Lewis Lung Cancer cells, the “kill in vitro, Lewis Lung Cancer cells” value is recorded as 100%.

`COc1cc(-c2nn([C@H]3CC[C@H](N4CCN(C(C)=O)CC4)CC3)c3ncnc(N)c23)ccc1NC(=O)c1cc2ccccc2n1C` [A-770041]: the “enhancement of IL-2 production, Lck inhibitor compared with IK14004” value in the series with IL-2 is “ten-fold greater enhancement”. For the same compound, the “increase in IL-2 secretion above vehicle control” value with IL-2 (A-770041 at 100 nM) turned out to be 300%. As for RSKAKNPLYR [IK14000], the “effect on c-Src activity” value in the series with c-Src is “inhibits c-Src”. Moreover, the “effect on Lck activity” value with Lck is “neither the 10 mer RSKAKNPLYR (designated IK14000) nor 4 lipidic peptide residues designated IK00041 activated Lck”.

As to “RSKAKNPLYR-(2Adod)3-NH2 (RSKAKNPLYR-{2Adod-2Adod-2Adod-NH2}) [IK14003, … conjugated to three 2-amino dodecanoic acid residues]”, the “effect on c-Src activity” value with c-Src is “stimulated c-Src activity above 1 uM”. Consider “rskaknplyr-(2Adod)4-NH2 ([dR][dS][dK][dA][dK][dN][dP][dL][dY][dR]-{2Adod-2Adod-2Adod-2Adod-NH2}) […-(2Adod)4-NH2 comprising D amino acids]”, for which the “effect on MAP4K1 (HPK1) kinase activity” value with MAP4K1 (HPK1) was “inhibits”. The CD28 levels result in the series on CD28 was “increased CD28 levels”. In the series on exhausted CD4+ cells, the “IL-2 expression on exhausted CD4+ cells upon restimulation” value is on record as “increases IL-2 expression”.
